# How the values were obtained:
# [1] = system: Spleen tissue of leukaemic BALB/c mice; assay: TUNEL assay of spleen tissue; assay type: in vivo; settings: Morinda at low and high doses
# A549 cells = assay: MTT cytotoxicity assay on A549 cells; assay type: cell-based; settings: Homo sapiens, after 72 hours, read-out: IC50 concentrations
# Experimental: The cytoxicity properties of the extract were determined by using MTT assay. MTT dye is a water-soluble yellow dye that is decreased in viable cells to MTT-formazan (3-[4,5-dimethylthiazol-2-yl]-3,5-diphenylformazan) that is an insoluble purple colored product, by the succinate dehydrogenase mitochondrial enzyme. The cells were seeded in 96-well Microplates at a density of 2×10^5 cells/ml. After 24 hours incubation, the cells were treated with various concentrations of Morinda leaf, or Clinacanthus spp. Leaves and root extract ([…]) for 24, 48 and 72 h. After 72 hours of incubation, 20 μL of MTT solution (5 mg/ml in PBS) was added in each well and the plates incubated for 4 hours. Then, after removing the media the formazan crystals were dissolved with 100 μL DMSO. Finally the absorbance was determined at 570 and 630 nm in a microplate reader (ECAN, Sunrise™, Männedorf, Switzerland). Cell viability was calculated as the percentage of absorbent compared to control. The 50% inhibitory concentration (IC50) value, defined as the amount of Morinda citrifolia leaf, or Clinacanthus spp. Leaves and root extract that inhibits 50% of cell growth, was calculated from the concentration-response curves. All experiments were carried out in triplicate. Three independent experiments performed in triplicate were used for these calculations. […]
# A549 cells (lung cancer) [2] = assay: Morphological changes under normal phase contrast inverted microscope; assay type: cell-based, human; settings: 400x
# Experimental: Wehi-3B (blood cancer) or A549 (lung cancer) cells at concentration of 1×10^6 cells/ml were cultured in RPMI 1640 (ATCC, USA) medium supplemented with 10% fetal bovin serum and were seeded into […] culture flask. […] The morphological changes of the cells were observed under normal inverted microscope. Untreated cells were used as negative control. Some morphological appearances such as plasma membrane blebbing, rounding up the cells, cell detachment, cell shrinkage and formation of vacuole in the cell were observed.
# Similarly Human lung fibroblast (MRC5), human lung adenocarcinoma (A549) cell lines, Essential Modified Eagle's Medium (EMEM) and Kaighn's Modification of Ham's F-12 (F-12K) medium were obtained from American Type Culture Collection (ATCC). MRC5 and A549 cells were cultured in EMEM and F-12K medium, respectively. Both media supplemented with 10% fetal bovine serum (FBS) and 1% of 100 μg/mL penicillin and streptomycin. Cells were grown in a humidified incubator at 37° C. with 5% CO2.
# [3] = system: A549 cells injected subcutaneously; assay: In vivo tumor xenograft model; set-up: species or system mice; settings: erlotinib 50 mg/kg, daily oral gavage 21 days
# Experimental: Male BALB/C mice (6 weeks old, weighing 19-20 g) were purchased from Faculty of Veterinary Medicine, University Putra Malaysia. Mice were housed in laminar air-flow cabinets under pathogen-free conditions with a 12-h light/12-h dark schedule and fed with autoclaved standard chow and water ad libitum. A549 cells (2×10^7) resuspended in 100 μL PBS were injected subcutaneously into the backs of mice. When tumor size reached approximately 100 mm^3, after 14 days of implantation, mice were randomly assigned to the following experimental groups and administered daily by oral gavage for 21 days: (a) saline; (b) erlotinib (50 mg/kg); (c) 150 mg/kg and (d) 300 mg/kg of Morinda spp. leaves, Clinacanthus spp. leaves. Mice were sacrificed via intraperitoneal injection of ketamine HCl (100 mg/kg) and xylazine (10 mg/kg). Tumor was collected. Some were kept in liquid nitrogen for gene expression, while others were fixed in 10% formalin and embedded in paraffin for hematoxylin and eosin (H&E) and immunohistochemical (IHC) examination. IHC kits (ChemMate™ DAKO EnVision™ Detection Kit, Peroxidase/DAB, Rabbit/Mouse) were purchased from Dako, Denmark. […]
# Data was expressed as mean±standard deviation (mean±SD) of at least three independent experiments; significant differences (p<0.05) using one-way analysis of variance (ANOVA) and Duncan test using statistical analysis IBM SPSS Statistics 21 software.
# tumor tissues = assay: Mouse apoptosis RT-PCR-Array on tumor tissues; assay type: in vivo, mice
# Experimental: Male BALB/C mice (6 weeks old, weighing 19-20 g) were purchased from Faculty of Veterinary Medicine, University Putra Malaysia. Mice were housed in laminar air-flow cabinets under pathogen-free conditions with a 12-h light/12-h dark schedule and fed with autoclaved standard chow and water ad libitum. A549 cells (2×10^7) resuspended in 100 μL PBS were injected subcutaneously into the backs of mice. When tumor size reached approximately 100 mm^3, after 14 days of implantation, mice were randomly assigned to the following experimental groups and administered daily by oral gavage for 21 days: (a) saline; (b) erlotinib (50 mg/kg); (c) 150 mg/kg and (d) 300 mg/kg of Morinda spp. leaves, Clinacanthus spp. leaves. Mice were sacrificed via intraperitoneal injection of ketamine HCl (100 mg/kg) and xylazine (10 mg/kg). Tumor was collected. Some were kept in liquid nitrogen for gene expression, while others were fixed in 10% formalin and embedded in paraffin for hematoxylin and eosin (H&E) and immunohistochemical (IHC) examination. IHC kits (ChemMate™ DAKO EnVision™ Detection Kit, Peroxidase/DAB, Rabbit/Mouse) were purchased from Dako, Denmark. The primary antibody was anti-EGFR antibody ab15669 (Abeam; Cambridge, United Kingdom). This protocol was approved by the Animal Care and Use Committee of University Putra Malaysia (UPM/IACUC/AUP-R016/2013).
# RNA was isolated using Trizol (Invitrogen, Carlsbad, Calif.). Custom RT^2 Profiler PCR Array (CAPM11988), RT^2 SYBR Green qPCR Mastermix, RT^2 First Strand Kit and RNase-Free DNase Set were purchased from SuperArray Bioscience Corporation (Frederick, Md.). Quantitative RT-PCR array for differentially expressed genes of interest was performed utilizing RT^2 Profiler PCR Array Data Analysis version 3.5 (SABiosciences; Fredrick, Md., USA), which normalized to Hsp90ab1 (NM_008302) and Gapdh (NM_008084). RT-PCR data is represented as the average relative mRNA gene expression of each experimental group (n=3).
# A549 cells (lung cancer) [4] = assay: AO/PI double staining fluorescence microscopy; assay type: cell-based, human; settings: 200x
# Experimental: AO/PI double staining was carried out to visualize any morphological changes in the cells upon treatment and also to semi-quantitated viable, apoptotic and necrotic cells, as shown in FIG. 3. […] After 24 hours treatment, blebbing of the cell membrane and dense green nucleus, which indicated nuclear chromatin condensation were noticeable (FIGS. 3(b) and 3(e)). Both early apoptosis features (blebbing and chromatin condensation) and late phases of apoptosis, which specify presence of intense reddish-orange colour due to acridine orange binding to denatured DNA, were observed more apparent at 48 hours of treatment (FIGS. 3(c) and 3(f)) and prominent at 72 hours (FIGS. 3(d) and 3(g)).
# A549 (lung cancer) = assay: Colourimetric assay of caspase 3, 8 and 9 in A549; assay type: cell-based, human; settings: A549, treated vs untreated cells, 24-72 hours
# Experimental: The colorimetric assay of caspase 3 was performed using fluorometric and colorimetric assay kit (biotium kit). Wehi-3B (blood cancer) or A549 (lung cancer) cells at concentration of 1×10^6 cells/ml were cultured in RPMI 1640 (ATCC, USA) medium supplemented with 10% fetal bovin serum and were seeded into […] culture flask. […] Untreated cells acted as control. The cells were lysed with cold lysis buffer and incubated for 10 minutes on ice. Then, cell lysate was spun down at 10000 rpm for 5 minutes. The supernatant was transferred to new wells and 50 μl assay buffer was added to each samples. Then, 5 μl of enzyme substrate (caspase-3 and 8 substrate) was added to each sample and incubated at 37° c. for 30-60 minutes in a dark place. […]. The samples were read at 495 nm in a microplate reader. Finally, the results were shown as optical density (495 nm, mean SD).
# A549 cells (lung cancer) [5] = assay: Flow cytometric cell cycle phase distribution; assay type: cell-based, human; settings: A549, IC50 concentration; for cell cycle arrest: 12-72 hours
# Experimental: The Wehi-3B (blood cancer) or A549 (lung cancer) cells (2×10^5 cells/mL) were treated with IC50 concentration of Morinda spp. leaves, or Clinacanthus spp. leaves with or without Zingiber extract and compared with erlotinib. After 12, 24, 48, and 72 hours of incubation, the cells were trypsinized, washed, fixed in 70% ethanol, stained with 1 mg/mL PI and analysed by flow cytometry (BD FACS Canto II, USA).
# For flow cytometry analysis fixation of cell population must be performed to keep the integrity and the cell pellets were fixed by adding of 500 μl of 70% chilled ethanol and kept at −20° c. for 5-7 days. Then, the cells were centrifuged at 1000 rpm for 10 minutes and the ethanol was removed. The cells were washed with washing solution containing PBS, EDTA, bovine serum albumin and sodium azide twice, and the pellet cells were resuspended to staining buffer containing 1 ml PBS and 3 μl PI (10 mg/ml) and 10 μl RNase A (50 mg/ml) for 30 minutes on ice dark place. RNase was added in order to permit PI to bind exactly to DNA. The DNA content of cells was analysed with a BD flow cytometer, and the data analysis was performed by using summit V4.3 software.
# [6] = Erlotinib 50 mg/kg, vs untreated
smiles,measurement,setting,value
CC1=C(/C=C/C(C)=C/C=C/C(C)=C/C(=O)O)C(C)(C)CCC1 [ATRA],apoptosis in spleen tissue (TUNEL),[1],significant (P<0.05) apoptosis
C#Cc1cccc(Nc2ncnc3cc(OCCOC)c(OCCOC)cc23)c1 [erlotinib],IC50,A549 cells,2.83 µg/mL
same,morphological changes of A549 cells,A549 cells (lung cancer) [2]; after 24 h,most of the cells exhibit normal morphology while some cells show cell shrinkage
same,morphological changes of A549 cells,A549 cells (lung cancer) [2]; after 48 h,clear apoptogenic morphology such as blebbing and cell shrinkage observed
same,morphological changes of A549 cells,A549 cells (lung cancer) [2]; after 72 h,"most of the cells were detached with obvious cell shrinkage, and blebbing of the cell membrane"
same,tumor size,[3],36.26±37.00 mm^3
same,Fold Change Bcl2,tumor tissues; [6],−3.57 fold
same,Fold Change Birc5,tumor tissues; [6],−2.40 fold
same,Fold Change Jak2,tumor tissues; [6],−1.26 fold
same,Fold Change Stat3,tumor tissues; [6],1.06 fold
same,Fold Change Stat5a,tumor tissues; [6],1.42 fold
same,Fold Change Trp53,tumor tissues; [6],−1.10 fold
same,survivin and Bcl-2 expression,tumor tissues; erlotinib positive control,down-regulation
same,AO/PI double-stained morphology,A549 cells (lung cancer) [4]; after 24 h,cells exhibit blebbing of the cell membrane and bright green nucleus showing condensation of chromatin
same,AO/PI double-stained morphology,A549 cells (lung cancer) [4]; after 48 h,late apoptosis features were seen
same,AO/PI double-stained morphology,A549 cells (lung cancer) [4]; after 72 hours,more late apoptosis
same,activity of caspase 9,A549 (lung cancer),remained unchanged
same,activity of caspase-3,A549 (lung cancer),significantly (P<0.05) increased
same,activity of caspase-8,A549 (lung cancer),significantly (P<0.05) increased
same,S and G2/M phase cells,A549 cells (lung cancer) [5],concomitant decrease
same,cell cycle arrest,A549 cells (lung cancer) [5],induced G0/G1 phase cell cycle arrested
same,cell cycle arrest,A549 cells (lung cancer) [5]; listed as erlotnib,induced G0/G1 arrest

# Reference: patent US20150265669A1, “METHODS AND COMPOSITIONS FOR INHIBITING CANCER CELL GROWTH” (priority 2014, published 2015)
